Consider 38 compounds from patent US8685974B2 (Bayer CropScience AG, priority 2009, dated 2014).

The chromatographic logP is lipophilicity estimated from chromatographic retention. Read a high chromatographic logP as a more lipophilic compound.

In one data set the test system is Alternaria solani. Description: Alternaria test (tomato) / protective. The format is in vivo. As to conditions: 500 ppm active compound, protective spray, evaluated 7 days after inoculation. The procedure, abridged: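 Young tomato plants sprayed protectively with compound formulated in DMF with alkylaryl polyglycol ether emulsifier and diluted in water to the application rate. After inoculation, plants held at 96% rel. humidity and 20° C. Efficacy scored 7 days post-inoculation: 0% equals untreated control, 100% no infection.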

Another data set has as its system Pyrenophora teres. In words: In vivo test on Pyrenophora teres (barley net blotch). Particulars: dose of 500 ppm; barley plants; grading 12 days after contamination. As for the experimental part:
In Vivo Test on Pyrenophora teres (Barley Net Blotch)
The active ingredients tested are prepared by homogenization in a mixture of acetone/Tween/DMSO, then diluted with water to obtain the desired active material concentration.
Barley plants (Plaisant variety), sown on a 50/50 peat soil-pozzolana substrate in starter cups and grown at 12° C., are treated at the 1-leaf stage (10 cm tall) by spraying with the active ingredient prepared as described above.
Plants, used as controls, are treated with an aqueous solution not containing the active material.
After 24 hours, the plants are contaminated by spraying them with an aqueous suspension of Pyrenophora teres spores (12,000 spores per ml). The spores are collected from a 12-day-old culture. The contaminated barley plants are incubated for 24 hours at about 20° C. and at 100% relative humidity, and then for 12 days at 80% relative humidity.
Grading is carried out 12 days after the contamination, in comparison with the control plants.

The subject of another data set is Fusarium graminearum. The format is cell-based. Particulars: 50 μM; for % Inhibition of DON/AcDON at 50 μM: 7 days at 28° C.

Each structure is given as a SMILES string. Where a name gives a salt, the structure may show the parent alone. Read-outs that look alike come from different tables or passages of the source. Marks after values point to notes of the source that are not given here.

`CCCc1cc(-c2cccs2)nn1C` [1-Methyl-5-propyl-3-(2-thienyl)-1H-pyrazole] returned a log p in “physchem” (pH 2.7) of 2.9.

Take `CC(C)Nc1nccc(C(=CN(C)C)C(=O)c2ccc(Cl)s2)n1` [3-(Dimethylamino)-1-(5-chloro-2-thienyl)-2-[2-(isopropylamino)pyrimidin-4-yl]prop-2-en-1-one]: the log p in “physchem” (pH 2.7) stood at 1.67.

With `CCC(C)n1cc(-c2ccnc(NC(C)=O)c2)c(-c2ccc(Cl)s2)n1` (stereo not shown) [N-{4-[1-sec-butyl-3-(5-chloro-2-thienyl)-1H-pyrazol-4-yl]pyridin-2-yl}acetamide], the log p in “physchem” (pH 2.7) is 2.94.

As to `Brc1ccc(-c2n[nH]cc2-c2ccncc2)s1` [4-[3-(5-Bromo-2-thienyl)-1H-pyrazol-4-yl]pyridine], the log p in the data set “physchem” (pH 2.7) amounted to 0.94.

`CCC(C)n1cc(-c2ccnc(C(=O)NC(C)C)c2)c(-c2ccc(Cl)s2)n1` (stereo not shown) [4-[1-sec-Butyl-3-(5-chloro-2-thienyl)-1H-pyrazol-4-yl]-N-isopropylpyridine-2-carboxamide] had a log p in the data set “physchem” (pH 2.7) of 4.82.

As for `CCn1nccc1-c1cc(Br)cs1` [5-(4-Bromo-2-thienyl)-1-ethyl-1H-pyrazole], the log p in “physchem” (pH 2.7) is 2.92.

The compound `C#CCNc1cc(-c2cn(CC(C)C)nc2-c2ccc(Cl)s2)ccn1` [2-Propargylamino-4-[1-isobutyl-3-(5-chloro-2-thienyl)-1H-pyrazol-4-yl]pyridine] displayed a log p in “physchem” (pH 2.7) of 2.3.

As to `FC(F)(F)c1ccc(-c2n[nH]cc2-c2ccncc2)s1` [4-[3-(5-trifluoromethyl-2-thienyl)-1H-pyrazol-4-yl]pyridine hydrochloride], the log p in the data set “physchem” (pH 2.7) stood at 1.34.

For `CN(C)C=CC(=O)c1cccs1` [3-(Dimethylamino)-1-(2-thienyl)prop-2-en-1-one], the log p in “physchem” (pH 2.7) turned out to be 1.33.

In “physchem” (pH 2.7), `CC(=O)c1ccc(-c2n[nH]cc2-c2ccncc2)s1` [1-{5-[4-(pyridin-4-yl)-1H-pyrazol-3-yl]-2-thienyl}ethanone hydrochloride] had a log p of 0.62.

With `CCn1cc(-c2ccncc2)c(-c2cccs2)n1` [4-[1-Ethyl-3-(2-thienyl)-1H-pyrazol-4-yl]pyridine], the log p in “physchem” (pH 2.7) worked out at 0.75.

Consider `CCC(C)n1ncc(-c2ccncc2)c1-c1ccc(Cl)s1` (stereo not shown) [4-[1-sec-Butyl-5-(5-chloro-2-thienyl)-1H-pyrazol-4-yl]pyridine], for which, in “physchem” (pH 2.7), the log p amounted to 1.94.

`CCC(C)n1ncc(-c2ccncc2)c1-c1ccc(F)s1` (stereo not shown) [4-[1-sec-butyl-5-(5-fluoro-2-thienyl)-1H-pyrazol-4-yl]pyridine] came in with a log p in the data set “physchem” (pH 2.7) of 1.84.

In the data set “physchem” (pH 2.7), `CC(C)n1cc(-c2ccncc2)c(-c2ccc(Cl)s2)n1` [4-[1-Isopropyl-3-(5-chloro-2-thienyl)-1H-pyrazol-4-yl]pyridine] yielded a log p of 1.82.

For `CCC[CH2][Sn]([CH2]CCC)([CH2]CCC)[c]1c(-c2ccncc2)cnn1C1CCCCO1` (stereo not shown) [4-[1-(tetrahydro-2H-pyran-2-yl)-5-(tributylstannyl)-1H-pyrazol-4-yl]pyridine], the log p in the data set “physchem” (pH 2.7) came out at 4.89.

Turning to `Clc1ccc(-c2n[nH]c(Br)c2-c2ccncc2)s1` [4-[5-Bromo-3-(5-chloro-2-thienyl)-1H-pyrazol-4-yl]pyridine], the log p in the data set “physchem” (pH 2.7) was found to be 1.4.

In turn, `CCn1nc(-c2ccc(Cl)s2)c(Br)c1C` [4-Bromo-3-(5-chloro-2-thienyl)-1-ethyl-5-methyl-1H-pyrazole] had a log p in the data set “physchem” (pH 2.7) of 4.54.

`CCC(C)n1nc(-c2ccc(Cl)s2)c(-c2ccncc2)c1Cl` (stereo not shown) [4-[5-Chloro-1-secbutyl-3-(5-chloro-2-thienyl)-1H-pyrazol-4-yl]pyridine] displayed a log p in “physchem” (pH 2.7) of 3.44.

Turning to `Cc1csc(-c2nn(C)cc2I)c1` [4-Iodo-1-methyl-3-(4-methyl-2-thienyl)-1H-pyrazole], the log p in the data set “physchem” (pH 2.7) is 3.18.

In “physchem” (pH 2.7), `CCn1cc(I)c(-c2cc(C)cs2)n1` [1-Ethyl-4-iodo-3-(4-methyl-2-thienyl)-1H-pyrazole] returned a log p of 3.7.

Regarding `CCC(C)n1cc(-c2ccncc2)c(-c2ccc(Cl)s2)n1` (stereo not shown) [4-[1-sec-Butyl-3-(5-chloro-2-thienyl)-1H-pyrazol-4-yl]pyridine], the log p in “physchem” (pH 2.7) worked out at 2.1.

Consider `CSc1nccc(C(=CN(C)C)C(=O)c2ccc(Cl)s2)n1` [3-(Dimethylamino)-1-(5-chloro-2-thienyl)-2-[2-(methylsulfanyl)pyrimidin-4-yl]prop-2-en-1-one], for which the log p in “physchem” (pH 2.7) is 2.27.

For `CCn1cc(-c2ccncc2)c(-c2cccs2)n1` [Example 148, 4-[1-Ethyl-3-(2-thienyl)-1H-pyrazol-4-yl]pyridine], the figures for the chromatographic logP in “physchem” (pH 2.7) and in “physchem” (pH 7.8) were 0.75 and 2.06, respectively.

Compound `CCC(C)n1cc(I)c(-c2cc(Cl)cs2)n1` (stereo not shown) [1-sec-Butyl-3-(4-chloro-2-thienyl)-4-iodo-1H-pyrazole] registered a log p in the data set “physchem” (pH 2.7) of 5.01.

As for `CC(C)Cn1ncc(-c2ccnc(Cl)c2)c1-c1ccc(Cl)s1` [2-Chloro-4-[1-isobutyl-5-(5-chloro-2-thienyl)-1H-pyrazol-4-yl]pyridine], in “physchem” (pH 2.7), the log p was found to be 4.62.

`CCC(C)n1cc(-c2ccnc(NC(=O)COC)c2)c(-c2ccc(Cl)s2)n1` (stereo not shown) [Example 223] showed an efficacy in the data set with Alternaria solani of 95%. In addition, the protection in the data set with Pyrenophora teres amounted to 95%. In the data set on Fusarium graminearum, the “% Inhibition of fungal growth at 50 μM” value was determined as 79% and the “% Inhibition of DON/AcDON at 50 μM” value amounted to 99%. Besides, the log p (pH 2.7) was 3.68^[b].

Take `CC(=O)Nc1cc(-c2cn(/C=C/F)nc2-c2ccc(Cl)s2)ccn1` [Example 293]: the efficacy in the data set with Alternaria solani came to 80%. Moreover, the protection with Pyrenophora teres is reported as 90%. Besides, in the data set with Fusarium graminearum, the “% Inhibition of fungal growth at 50 μM” value is 32% and the “% Inhibition of DON/AcDON at 50 μM” value is given as 100%. Under “pH 2.7”, the log p is 2.52^[b].

For `CCOCCn1cc(-c2ccncc2)c(-c2ccc(Cl)s2)n1` [Example 364], the efficacy with Alternaria solani was 100%. This compound gave a protection in the data set with Pyrenophora teres of 70%. Further, in the data set with Fusarium graminearum, the “% Inhibition of fungal growth at 50 μM” value was determined as 100% and the “% Inhibition of DON/AcDON at 50 μM” value was 99%. Moreover, the log p (pH 2.7) is 1.69^[b].

The compound `CCC(C)n1cc(-c2ccnc(NC(=O)N(C)C)c2)c(-c2ccc(Cl)s2)n1` (stereo not shown) [Example 227] gave an efficacy in the data set with Alternaria solani of 80%. This compound returned a protection in the data set on Pyrenophora teres of 95%. In the data set with Fusarium graminearum, the “% Inhibition of fungal growth at 50 μM” value was determined as 100% and the “% Inhibition of DON/AcDON at 50 μM” value is 99%. Moreover, the log p (pH 2.7) is 2.19^[b].

`CC(=O)N(C(C)=O)c1cc(-c2cn(C)nc2-c2ccc(Cl)s2)ccn1` [Example 303] displayed an efficacy in the data set with Alternaria solani of 95%. Also, the protection in the data set with Pyrenophora teres was 70%. Besides, in the data set with Fusarium graminearum, the “% Inhibition of fungal growth at 50 μM” value is reported as 83% and the “% Inhibition of DON/AcDON at 50 μM” value is recorded as 100%. Further, the log p (pH 2.7) is 2.52^[b].

In the data set on Alternaria solani, `CC(C)CC(=O)Nc1cc(-c2cn(C)nc2-c2ccc(Cl)s2)ccn1` [Example 270] registered an efficacy of 95%. The compound further returned a protection with Pyrenophora teres of 95%. Further, in the data set with Fusarium graminearum, the “% Inhibition of fungal growth at 50 μM” value was found to be 49% and the “% Inhibition of DON/AcDON at 50 μM” value is 98%. Where the note is “pH 2.7”, the log p is 2.75^[b].

As to `CCC(C)n1cc(-c2ccnc(NC(=O)CC(C)C)c2)c(-c2ccc(Cl)s2)n1` (stereo not shown) [Example 235], in the data set on Alternaria solani, the efficacy is listed as 95%. This compound gave a protection in the data set on Pyrenophora teres of 95%. Also, in the data set with Fusarium graminearum, the “% Inhibition of fungal growth at 50 μM” value was 0% and the “% Inhibition of DON/AcDON at 50 μM” value was determined as 86%. Also, the log p (pH 2.7) was 4.08^[b].

`CCn1cc(-c2ccnc(NC(=O)CC3CC3)c2)c(-c2ccc(Cl)s2)n1` [Example 253]: in the data set on Alternaria solani, the efficacy stood at 95%. The protection in the data set with Pyrenophora teres was determined as 100%. For the same compound, in the data set with Fusarium graminearum, the “% Inhibition of fungal growth at 50 μM” value is on record as 100% and the “% Inhibition of DON/AcDON at 50 μM” value came out at 99%. Moreover, the log p (pH 2.7) is 2.94^[b].

The compound `CCC(C)n1cc(-c2ccnc(NC3COC3)n2)c(-c2ccc(Cl)s2)n1` (stereo not shown) [Example 194] came in with an efficacy with Alternaria solani of 95%. The protection in the data set with Pyrenophora teres was 100%. Also, in the data set on Fusarium graminearum, the “% Inhibition of fungal growth at 50 μM” value amounted to 90% and the “% Inhibition of DON/AcDON at 50 μM” value is given as 99%. Also, the log p (pH 2.3) is 3.09^[a].

`CC(C)n1cc(-c2ccnc(NC(=O)CC3CC3)c2)c(-c2ccc(Cl)s2)n1` [Example 250] had an efficacy in the data set with Alternaria solani of 90%. Besides, in the data set with Pyrenophora teres, the protection came to 100%. In the data set on Fusarium graminearum, the “% Inhibition of fungal growth at 50 μM” value stood at 29% and the “% Inhibition of DON/AcDON at 50 μM” value is 99%. Further, under “pH 2.7”, the log p was 3.37^[b].

As to `CCC(C)n1cc(-c2ccnc(NC(=O)[C@H](C)O)c2)c(-c2ccc(Cl)s2)n1` (stereo partly shown) [Example 204], the efficacy in the data set on Alternaria solani is given as 80%. In the data set on Pyrenophora teres, this compound showed a protection of 80%. Besides, in the data set with Fusarium graminearum, the “% Inhibition of fungal growth at 50 μM” value is listed as 56% and the “% Inhibition of DON/AcDON at 50 μM” value is on record as 95%. Further, the log p (pH 2.7) was 3.13^[b].

On to `N#CCCn1cc(-c2ccncc2)c(-c2ccc(Br)s2)n1` [Example 350], for which the efficacy in the data set with Alternaria solani was found to be 80%. Further, the protection with Pyrenophora teres amounted to 90%. Further, in the data set on Fusarium graminearum, the “% Inhibition of fungal growth at 50 μM” value came to 92% and the “% Inhibition of DON/AcDON at 50 μM” value is given as 99%. Further, the log p (pH 2.7) is 1.42^[b].

`CC(=O)N(C(C)=O)c1cc(-c2cn(/C=C/F)nc2-c2ccc(Cl)s2)ccn1` [Example 297]: the efficacy with Alternaria solani stood at 90%. This compound returned a protection with Pyrenophora teres of 80%. Besides, in the data set on Fusarium graminearum, the “% Inhibition of fungal growth at 50 μM” value is on record as 0% and the “% Inhibition of DON/AcDON at 50 μM” value is 100%. Where the note is “pH 2.7”, the log p is 3.09^[b].
